Data reported in patent US20210169993A1, “TREATMENT OF A SUBTYPE OF ASD” (STALICLA SA, priority 2017, published 2021).

The substances below were run on ASD phenotype 1 lymphoblastoid cell lines (assay: NADH production in Phenotype Mammalian MicroArrays (PM-M, Biolog), ASD phenotype 1 cells). Conditions: FIG. 1 (AUC) and Table 1 (endpoint absorbance).
Format: cell-based, human
Experimental: From all subjects, blood samples were collected and lymphoblastoid cell lines generated. Briefly, tubes containing anticoagulant citrate dextrose (ACD) were used to collect blood samples via venipuncture, in order to ensure that the blood cells remained metabolically active. The tubes were kept at room temperature and processed within 24 hours.
Cell lines were obtained by immortalization of lymphocytes from blood samples using Epstein-Barr virus.
Energy production of cells was measured using commercially available Phenotype Mammalian MicroArrays (PM-Ms, Biolog, Hayward, Calif., USA).
The compound in each well was designed to be used by the cells, either as the sole energy source or as the metabolic effector influencing the utilization of an energy source (α-D-glucose) added in the cell suspension. […] Before plating, cell viability and number were assessed utilizing a BioRad cell counter and a trypan blue dye. The concentration of live cells required for plating was 4×10^5 cells/mL, corresponding to 20,000 cells per well in a volume of 50 μL. […] Cells were incubated for 48 h at 37° C. in 5% CO2, using the modified Biolog IF-M1 medium.
The Biolog IF-M1 medium was modified for plates PM-M1 to M4 by adding the following to 100 mL of Biolog IF-M1: 1.1 mL of 100× penicillin/streptomycin solution, 0.16 mL of 200 mM glutamine (final concentration 0.3 mM), and 5.3 mL of Fetal Bovine Serum (FBS, final concentration 5%). For plates PM-M5 to M8, 5.5 mM α-D-glucose will be added in place of FBS.
During the 48-hour incubation, the only energy source the cells had was the chemical in the well. After this first incubation, Biolog Redox Dye Mix MB was added (10 μL/well) and the plates were incubated under the same conditions for an additional 24 hours. As the cells metabolized the energy source, tetrazolium dye in the media was reduced, producing a purple color according to the amount of NADH generated.
For the last 24 hours of the experiment, the plates were incubated in the Omnilog system, which collects optical density readings every 15 minutes, generating 96 data-points for each well. The system also elaborated the kinetic curve for the metabolic reaction in each well and extrapolated parameters such as slope, highest point, endpoint, area under the curve (AUC), and lag.
At the end of the 24-hour incubation, the plates were analyzed utilizing a microplate reader with readings at 590 and 750 nm. The first value (A590) indicated the highest absorbance peak of the redox dye and the second value (A750) gave a measure of the background noise. The relative absorbance (A590-750) was calculated per well.

**Q.** IL-1beta: Th1 cytokine was tested. Which “production of NADH in ASD phenotype 1 cells compared to TDs and non-phenotype 1 cells” value did it give?
**A.** Its value is “significantly lower”.

**Q.** Which “production of NADH in ASD phenotype 1 cells compared to TDs and non-phenotype 1 cells” value does the source give for IL-6: Th1 cytokine here?
**A.** Its value is “significantly lower”.

**Q.** “FGF-1(aFGF): growth factor that selectively targets PI3K-Akt-mTOR by binding the receptor tyrosine kinase” was tested. Which “production of NADH in ASD phenotype 1 cells compared to TDs and non-phenotype 1 cells” value did it give?
**A.** Its value is “significantly reduced”.

**Q.** Which “production of NADH in ASD phenotype 1 cells compared to TDs and non-phenotype 1 cells” value does the source give for “hGH (Somatotropin): growth factor that selectively targets PI3K-Akt-mTOR by binding the receptor tyrosine kinase” here?
**A.** The value was “significantly reduced”.

**Q.** Which “production of NADH in ASD phenotype 1 cells compared to TDs and non-phenotype 1 cells” value does the source give for “PDGF-AB: platelet-derived growth factor AB” here?
**A.** The value was “no significant differences”.

**Q.** With IGF-I: insulin-like growth factor 1 as the substance, how does the “production of NADH in ASD phenotype 1 cells compared to TDs and non-phenotype 1 cells” value read?
**A.** The value was “no significant differences”.
